Assay results taken from ChEMBL document CHEMBL1201862, “PubChem BioAssay data set” (2004).
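Cells were grown in 96-well plates and exposed to each compound for 48 hours at five concentrations; endpoints were interpolated linearly between bracketing concentrations, or set to the highest concentration if not reached. Abbreviation: GI50, concentration required for 50% inhibition of growth.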 Calls of active or inactive are those of the source. Cut-off read from the data, not from the text of the source: active = GI50 up to about 1.1 µM and inactive = higher.

How the values were obtained:
Test in all cases: growth of human tumour cells (NCI), 48 h
A498 = system: A498
ACHN = system: ACHN
BT-549 = system: BT-549
CAKI-1 = system: CAKI-1
CCRF-CEM = system: CCRF-CEM
HT-29 = system: HT-29
K562 = system: K562
KM-20L2 = system: KM-20L2
LOX IMVI = system: LOX IMVI
M14 = system: M14
MCF7 = system: MCF7
MDA-MB-231 = system: MDA-MB-231
NCI-H23 = system: NCI-H23
OVCAR-3 = system: OVCAR-3
OVCAR-8 = system: OVCAR-8
PC-3 = system: PC-3
SF-539 = system: SF-539
SK-OV-3 = system: SK-OV-3
SN12C = system: SN12C
UACC-257 = system: UACC-257

Measured: GI50

COc1ccc2c(c1[N+](=O)[O-])CC[C@@H]1[C@@H]2CC[C@]2(C)C(=O)CC[C@@H]12
inactive: A498 > 25 µM | ACHN > 25 µM | BT-549 > 25 µM | CAKI-1 > 25 µM | CCRF-CEM 9.06 µM | HT-29 > 25 µM | K562 24.9 µM | KM-20L2 > 25 µM | LOX IMVI > 25 µM | M14 > 25 µM | MCF7 > 25 µM | MDA-MB-231 > 25 µM | NCI-H23 > 25 µM | OVCAR-3 > 25 µM | OVCAR-8 > 25 µM | PC-3 22 µM | SF-539 > 25 µM | SK-OV-3 7.41 µM | SN12C > 25 µM | UACC-257 > 25 µM
